No end group written: not given here.
Assay: Solubility study of TAT-NR2B9c, visual analysis
Type: physicochemical
Conditions: pH 6.5, 35, 50, 75 and 100 mg/mL, t=0 and t=24 hours
Experimental: Due to the relatively low Tg temperatures that would likely require a longer lyophilization cycle to dry, we looked at a wider range of standard bulking agents and looked to reduce the fill volume into the container closure system so that there would be a reduced volume of liquid to lyophilize. […] Samples were visually analyzed at 35, 50, 75 and 100 mg/mL. All solutions were clear at t=0 and t=24 hours. […] A wide range of quantities may be required in a vial, but 270 mg would provide a […] dose for a 100 kg patient. Assuming the target reconstitution concentration for patient administration is still 20 mg/mL (but can be from 1 mg/ml to 100 mg/ml), then a 20-mL lyophilization vial containing 270 mg of TAT-NR2B9c can be used with a reconstitution volume of 13.5 mL. Therefore, optimal volumes of liquid for lyophilization of TAT-NR2B9c in the vial would be between 2.5 mL and 10 mL.

## YGRKKRRQRRRKLSSIESDV [TAT-NR2B9c]
In Histidine+Trehalose
  solubility, visual analysis: clear
In Histidine
  solubility, visual analysis: clear

From US11266714B2, “Chloride salt of TAT-NR2B9C” (NoNO Inc., priority 2014, dated 2022)
